Experimental data taken from patent publication US11833120B2, “Binding protein drug conjugates comprising anthracycline derivatives” (priority 2014, dated 2023).

Tests used:
[1] = tested on: L428, a Hodgkin's lymphoma cell line expressing low to moderate levels of CD30; test: In vitro cytotoxicity assay (CellTiter-Glo) on L428; assay type: cell-based, human; details: CD30 LO L428 cells, 4 days, up to 20 μg/ml
Method: For this, cells were plated on 96-well plates in 100 μl RPMI/10% FCS at a density of 10^4 cells per well and grown at 37° C. in a humidified incubator at 5% CO2 atmosphere. After one day incubation, 25 μl medium was carefully removed from each well and replaced by 25 μl of 3.5-fold serial dilutions of each ADC in growth medium, resulting in final ADC concentrations ranging from 20 μg/ml to 0.25 ng/ml. Each dilution was done in duplicate. After 4 additional days, plates were removed from the incubator and equilibrated to room temperature. After approximately 30 minutes, 100 μl CellTiter-Glo® Luminescent Solution (Promega, Cat. No G7570) was added to each well and, after shaking the plates at 450 rpm for 5 min followed by a 10 min incubation without shaking, luminescence was measured on a Tecan Infinity F200 with an integration time of 1 second per well.
Cells were incubated with serial dilutions of ADCs for 4 days, after which CellTiter-Glo® Luminescent Solution (Promega) was added and viable cells were quantified by measuring the luminescence on a Tecan Infinity F200.

[2] = tested on: ovarian (A2780) cancer cell line; details: A2780, WO2012/073217; cited from earlier work
[3] = tested on: breast cancer (MCF7) cell line; details: MCF7, WO2012/073217; cited from earlier work

| Compound | cell killing (in words) [1] | potency for in vitro cell killing [2] | potency for in vitro cell killing [3] |
| --- | --- | --- | --- |
| cAc10-PNU-EDA-Gly5 | only at higher concentrations, similar to the control ADCs employed | – | – |
| Adcetris | inefficient at killing | – | – |
| COc1cccc2c1C(=O)c1c(O)c3c(c(O)c1C2=O)C[C@@](O)(C(=O)CO)C[C@@H]3O[C@H]1C[C@H]2[C@H](O[C@@H]3[C@@H](OC)OCCN32)[C@H](C)O1 [PNU-159682] | – | pico- to femtomolar range | pico- to femtomolar range |
